In patent US5281585A, “Fibrinogen receptor antagonists for inhibiting aggregation of blood platelets” (Merck & Co., Inc., priority 1992, dated 1994):

Legend:
platelet aggregation [1] = experiment: In vivo activity in dogs: ex vivo platelet aggregation, oral administration; design: species or system dog; details: single oral administration of 2 mg/kg, for a period of eight hours
Description: (§1) The following protocols were used to determine in vivo activity in dogs of fibrinogen receptor antagonists of the present invention.
(§2) A mongrel dog of either sex (weighing 7.5 to 11.5 kg) is comfortably positioned in a nylon sling which exposes the legs and keeps the dog stationary. Five ml of blood is withdrawn from either saphenous or cephalic veins with a plastic syringe containing 0.5 ml of 3.8% citrate via a 19-gauge butterfly. An additional I ml of citrated blood is taken to measure whole blood platelet counts. Ex vivo platelet aggregations are done with the agonists ADP (10 μM) and collagen (10 μg/ml) both primed with 1μM epinephrine. Platelet-rich plasma (PRP) is obtained by centrifuging the blood at 150 x g for 5 minutes. Platelet counts are adjusted to 200,000/mm^3 with platelet-poor plasma.
Oral administration of a drug is done either as a gelatin capsule or a gastric lavage. For the gastric lavage method, 5 ml of the drug solution is administered to the dog through a feeding tube. Blood samples for ex vivo platelet aggregation are taken at the following time points: 0,20, 40, 70, 90, 150, 200, 250, 300, 350, 480 min. 24 hr. 30 hr, and 48 hr. At each time point, the remaining platelet-poor plasma is saved and frozen for drug levels. […]
(§3) In the oral and intravenous groups, blood collection times are recorded at each time point in order to determine drug plasma levels.

platelet aggregation [2] = experiment: In vivo activity in dogs: ex vivo platelet aggregation, intravenous infusion; design: species or system dog; details: 10 μg/kg/min and 25 μg/kg/min
Description: as §1, §2
For the intravenous infusion, blood samples for ex vivo platelet aggregation are taken at the following time points: 0,30, 45, 60, 90 and 120 min into the infusion and 2,5, 15, 30, 60, 90, 120, 180, 240, 300, 360, and 420 minutes after the infusion stops. At each time point, the remaining platelet-poor plasma is saved and frozen for drug levels. The drug is infused for 120 minutes at a constant rate of 0.1 ml/min.
as §3

## O=C(O)CCNC(=O)CN1CCCC(CCC2CCNCC2)C1=O (stereo not drawn)
Platelet aggregation [1]
  % Inhibition of platelet aggregation: greater than 50%
Platelet aggregation [2]; during infusion
  Inhibition of platelet aggregation (% of control) during infusion: nearly complete
Platelet aggregation [2]; for several hours after infusion cessation
  Inhibition of platelet aggregation (% of control) after infusion cessation: partial inhibition
